Measured values: patent US9980943B2, “Methods of treating muscular dystrophy” (BOARD OF REGENTS OF THE NEVADA SYSTEM OF HIGHER EDUCATION, …, priority 2013, dated 2018)

Legend:
Type in all cases: cell-based, mouse
[1] = tested on: α7 integrin (LacZ reporter in α7βgal+/− myoblasts); assay: Myoblast α7+/LacZ integrin FDG assay (Burkin assay in myoblasts, 96-well); conditions: 96-well; for Burkin Assay in Myoblasts, value relative to DMSO: SU9516 analogs, N=3-6; for Burkin Assay in Myoblasts, signal relative to DMSO: α7+/LacZ myoblasts
[2] = tested on: α7 integrin (LacZ reporter in α7+/LacZ myotubes); assay: Myotube α7 integrin FDG assay (Burkin assay in myotubes, 96-well); conditions: for Burkin Assay in Myotubes, value relative to DMSO: SU9516 analogs, 96-well, N=3-6
[3] = tested on: β-galactosidase in CMV-LacZ C2C12 myoblasts; assay: CMV-LacZ secondary screen in C2C12 myoblasts (β-Gal stabilizing assay); conditions: for CMV-LACZ in Myoblasts, value relative to DMSO: SU9516 analogs, C2C12 CMV-LacZ, N=2; for CMV-LACZ in Myoblasts (β-galactosidase activity relative to DMSO): CMV-LacZ C2C12 myoblasts
Summary of the method: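 C2C12 myoblasts stably carrying a linearized CMV-driven LacZ construct, clone chosen by β-gal level in the myoblast FDG assay. Compounds tested in 96-well dose-response at 0.5, 1, 5, 10, 20 and 40 μM, N=2 replicates per point, to detect β-gal stabilization.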

[4] = tested on: β-galactosidase in CMV-LacZ C2C12 myotubes; assay: CMV-LacZ secondary screen in C2C12 myotubes (β-Gal stabilizing assay); conditions: for CMV-LACZ in Myotubes, value relative to DMSO: SU9516 analogs, C2C12 CMV-LacZ, N=2; for CMV-LACZ in Myotubes, signal relative to DMSO: C2C12 CMV-LacZ myotubes, fold relative to DMSO
Summary of the method: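 Stable CMV-LacZ C2C12 clone; six-point curve 0.5–40 μM; duplicates.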

Cc1ccc2c(c1)/C(=C/c1ccc(F)cc1)C(=O)N2 [MLS001202366-01]
Burkin Assay in Myoblasts, value relative to DMSO ([1]; 0.5 uM): 1.007 | Burkin Assay in Myoblasts, value relative to DMSO ([1]; 1 uM): 0.9698 | Burkin Assay in Myoblasts, value relative to DMSO ([1]; 5 uM): 0.8762 | Burkin Assay in Myoblasts, value relative to DMSO ([1]; 10 uM): 0.7458 | Burkin Assay in Myoblasts, value relative to DMSO ([1]; 20 uM): 0.4873 | Burkin Assay in Myoblasts, value relative to DMSO ([1]; 40 uM): 0.2456 | Burkin Assay in Myotubes, value relative to DMSO ([2]; 0.5 uM): 1.114 | Burkin Assay in Myotubes, value relative to DMSO ([2]; 1 uM): 1.099 | Burkin Assay in Myotubes, value relative to DMSO ([2]; 5 uM): 1.089 | Burkin Assay in Myotubes, value relative to DMSO ([2]; 10 uM): 0.9194 | Burkin Assay in Myotubes, value relative to DMSO ([2]; 20 uM): 0.5272 | Burkin Assay in Myotubes, value relative to DMSO ([2]; 40 uM): 0.5105 | CMV-LACZ in Myoblasts, value relative to DMSO ([3]; 0.5 uM): 0.7656 | CMV-LACZ in Myoblasts, value relative to DMSO ([3]; 1 uM): 0.6431 | CMV-LACZ in Myoblasts, value relative to DMSO ([3]; 5 uM): 1.0533 | CMV-LACZ in Myoblasts, value relative to DMSO ([3]; 10 uM): 1.3214 | CMV-LACZ in Myoblasts, value relative to DMSO ([3]; 20 uM): 0.7222 | CMV-LACZ in Myoblasts, value relative to DMSO ([3]; 40 uM): 0.3322 | CMV-LACZ in Myotubes, value relative to DMSO ([4]; 0.5 uM): 0.9844 | CMV-LACZ in Myotubes, value relative to DMSO ([4]; 1 uM): 1.0570 | CMV-LACZ in Myotubes, value relative to DMSO ([4]; 5 uM): 0.8072 | CMV-LACZ in Myotubes, value relative to DMSO ([4]; 10 uM): 0.9927 | CMV-LACZ in Myotubes, value relative to DMSO ([4]; 20 uM): 0.8329 | CMV-LACZ in Myotubes, value relative to DMSO ([4]; 40 uM): 1.0847

O=C1Nc2ccccc2/C1=C/c1ccccc1F [MLS001202389-01]
Burkin Assay in Myoblasts, signal relative to DMSO ([1]; 0.5 uM): 0.9323 | Burkin Assay in Myoblasts, signal relative to DMSO ([1]; 1 uM): 0.9481 | Burkin Assay in Myoblasts, signal relative to DMSO ([1]; 5 uM): 1.009 | Burkin Assay in Myoblasts, signal relative to DMSO ([1]; 10 uM): 1.1004 | Burkin Assay in Myoblasts, signal relative to DMSO ([1]; 20 uM): 0.5816 | Burkin Assay in Myoblasts, signal relative to DMSO ([1]; 40 uM): 0.2556 | Burkin Assay in Myotubes, α7 integrin LacZ reporter signal relative to DMSO ([2]; 0.5 uM): 0.9181 | Burkin Assay in Myotubes, α7 integrin LacZ reporter signal relative to DMSO ([2]; 1 uM): 0.9393 | Burkin Assay in Myotubes, α7 integrin LacZ reporter signal relative to DMSO ([2]; 5 uM): 0.9936 | Burkin Assay in Myotubes, α7 integrin LacZ reporter signal relative to DMSO ([2]; 10 uM): 1.053 | Burkin Assay in Myotubes, α7 integrin LacZ reporter signal relative to DMSO ([2]; 20 uM): 0.6412 | Burkin Assay in Myotubes, α7 integrin LacZ reporter signal relative to DMSO ([2]; 40 uM): 0.5594 | CMV-LACZ in Myoblasts (β-galactosidase activity relative to DMSO) ([3]; 0.5 uM): 1.0237 | CMV-LACZ in Myoblasts (β-galactosidase activity relative to DMSO) ([3]; 1 uM): 1.1108 | CMV-LACZ in Myoblasts (β-galactosidase activity relative to DMSO) ([3]; 5 uM): 1.0084 | CMV-LACZ in Myoblasts (β-galactosidase activity relative to DMSO) ([3]; 10 uM): 0.8920 | CMV-LACZ in Myoblasts (β-galactosidase activity relative to DMSO) ([3]; 20 uM): 0.6115 | CMV-LACZ in Myoblasts (β-galactosidase activity relative to DMSO) ([3]; 40 uM): 0.5081 | CMV-LACZ in Myotubes, signal relative to DMSO ([4]; 0.5 uM): 1.1558 | CMV-LACZ in Myotubes, signal relative to DMSO ([4]; 1 uM): 1.1821 | CMV-LACZ in Myotubes, signal relative to DMSO ([4]; 5 uM): 1.0432 | CMV-LACZ in Myotubes, signal relative to DMSO ([4]; 10 uM): 1.1312 | CMV-LACZ in Myotubes, signal relative to DMSO ([4]; 20 uM): 1.0900 | CMV-LACZ in Myotubes, signal relative to DMSO ([4]; 40 uM): 0.9311

Cc1ccc2c(c1)/C(=C/c1ccccc1C)C(=O)N2 [MLS001202402-01]
Burkin Assay in Myoblasts, value relative to DMSO ([1]; 0.5 uM): 1.051 | Burkin Assay in Myoblasts, value relative to DMSO ([1]; 1 uM): 0.9034 | Burkin Assay in Myoblasts, value relative to DMSO ([1]; 5 uM): 0.9255 | Burkin Assay in Myoblasts, value relative to DMSO ([1]; 10 uM): 1.08 | Burkin Assay in Myoblasts, value relative to DMSO ([1]; 20 uM): 0.6481 | Burkin Assay in Myoblasts, value relative to DMSO ([1]; 40 uM): 0.325 | Burkin Assay in Myotubes, value relative to DMSO ([2]; 0.5 uM): 0.9628 | Burkin Assay in Myotubes, value relative to DMSO ([2]; 1 uM): 0.8962 | Burkin Assay in Myotubes, value relative to DMSO ([2]; 5 uM): 0.9629 | Burkin Assay in Myotubes, value relative to DMSO ([2]; 10 uM): 1.0295 | Burkin Assay in Myotubes, value relative to DMSO ([2]; 20 uM): 0.5907 | Burkin Assay in Myotubes, value relative to DMSO ([2]; 40 uM): 0.3717 | CMV-LACZ in Myoblasts, value relative to DMSO ([3]; 0.5 uM): 1.0546 | CMV-LACZ in Myoblasts, value relative to DMSO ([3]; 1 uM): 1.0106 | CMV-LACZ in Myoblasts, value relative to DMSO ([3]; 5 uM): 0.8771 | CMV-LACZ in Myoblasts, value relative to DMSO ([3]; 10 uM): 0.7598 | CMV-LACZ in Myoblasts, value relative to DMSO ([3]; 20 uM): 0.7204 | CMV-LACZ in Myoblasts, value relative to DMSO ([3]; 40 uM): 0.4819 | CMV-LACZ in Myotubes, value relative to DMSO ([4]; 0.5 uM): 0.9200 | CMV-LACZ in Myotubes, value relative to DMSO ([4]; 1 uM): 0.8695 | CMV-LACZ in Myotubes, value relative to DMSO ([4]; 5 uM): 0.9237 | CMV-LACZ in Myotubes, value relative to DMSO ([4]; 10 uM): 0.8015 | CMV-LACZ in Myotubes, value relative to DMSO ([4]; 20 uM): 0.8847 | CMV-LACZ in Myotubes, value relative to DMSO ([4]; 40 uM): 0.8129
